Consider eight molecules from PubChem BioAssay (NCI).

Molecules are shown by their SMILES.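 96-well plates; 48 h exposure; 5 concentrations. Endpoints by linear interpolation between flanking doses. Not reached: highest tested concentration assigned. TGI marks complete inhibition of growth.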 Bounds are passed on as bounds.

Some test systems named below: RPMI-8226 leukemia; T-47D breast; MALME-3M melanoma; ACHN renal; SN12C renal; NCI-H23 lung; OVCAR-5 ovarian; MDA-MB-435; SK-MEL-2 melanoma; HCT-15 colon; CCRF-CEM leukemia; U251 CNS; MOLT-4 leukemia; IGROV1 ovarian; HS 578T breast; HOP-92 NSCLC; MCF7 breast; SR leukemia; SK-MEL-28 melanoma; BT-549 breast.
Holding throughout (test): NCI tumour cell line growth inhibition, 48 h

As for `COC(=O)CCc1ccc2c(c1)CC1(Cc3ccccc3C1)C2`, the TGI in the test on RPMI-8226 leukemia, in the test on T-47D breast, in the test on MALME-3M melanoma, in the test with ACHN renal, in the test on SN12C renal and in the test on NCI-H23 lung was over 100 µM in each case. For the same molecule, the TGI with OVCAR-5 ovarian, with MDA-MB-435, in the test on SK-MEL-2 melanoma, in the test with HCT-15 colon, in the test with CCRF-CEM leukemia and in the test with U251 CNS was over 100 µM in each case. The TGI with MOLT-4 leukemia, in the test with IGROV1 ovarian, with HS 578T breast, in the test with HOP-92 NSCLC and in the test with MCF7 breast was over 100 µM in each case.

For the molecule `O=[N+]([O-])c1cc(-c2nnc(C34CC5CC(CC(C5)C3)C4)o2)cc([N+](=O)[O-])c1`, the TGI in the test on RPMI-8226 leukemia, in the test on T-47D breast, with MALME-3M melanoma, in the test on ACHN renal, with SN12C renal and in the test on NCI-H23 lung was over 100 µM throughout. Besides, the TGI with OVCAR-5 ovarian was over 100 µM; in the test on MDA-MB-435 it was 77 µM; in the test with SK-MEL-2 melanoma it was over 100 µM; in the test on HCT-15 colon, over 100 µM; in the test with CCRF-CEM leukemia, over 100 µM; with SR leukemia, over 100 µM. Further, the TGI in the test on U251 CNS is over 100 µM; in the test with MOLT-4 leukemia, over 100 µM; with IGROV1 ovarian, over 100 µM; in the test on HS 578T breast, over 100 µM; with HOP-92 NSCLC, 94.6 µM; in the test with SK-MEL-28 melanoma, over 100 µM.

On to `COC(=O)c1cnn2c1ccc1ccccc12`, for which the TGI with RPMI-8226 leukemia, in the test with T-47D breast, in the test with MALME-3M melanoma, in the test with ACHN renal, in the test with BT-549 breast and in the test with SN12C renal was over 100 µM throughout. Besides, the TGI in the test with NCI-H23 lung, in the test on OVCAR-5 ovarian, in the test on MDA-MB-435, in the test on SK-MEL-2 melanoma, with HCT-15 colon and in the test on CCRF-CEM leukemia was over 100 µM each time. Further, the TGI in the test on U251 CNS, in the test with MOLT-4 leukemia, in the test with IGROV1 ovarian, in the test on HS 578T breast, in the test with HOP-92 NSCLC and in the test with SK-MEL-28 melanoma was over 100 µM each time.

Consider `Cc1sc(Nc2ccccc2[N+](=O)[O-])c(C#N)c1C`, for which the TGI in the test with RPMI-8226 leukemia was over 100 µM; in the test on T-47D breast it was over 100 µM; with MALME-3M melanoma, over 100 µM; in the test on ACHN renal, over 100 µM; with BT-549 breast it was 57.9 µM; with SN12C renal it was over 100 µM. Further, the TGI in the test on NCI-H23 lung is 44.8 µM; with OVCAR-5 ovarian, over 100 µM; in the test on MDA-MB-435, over 100 µM; in the test with HCT-15 colon, over 100 µM; in the test on CCRF-CEM leukemia it was over 100 µM; in the test on SR leukemia, over 100 µM. Besides, the TGI is 62.6 µM with U251 CNS; over 100 µM in the test with MOLT-4 leukemia; 53 µM in the test with HOP-92 NSCLC; over 100 µM in the test on MCF7 breast; over 100 µM with SK-MEL-28 melanoma.

With `NC(=NCCN1CCCCCCC1)NO`, the TGI in the test with RPMI-8226 leukemia was over 100 µM; with T-47D breast, over 100 µM; in the test with MALME-3M melanoma, over 100 µM; in the test with ACHN renal it was 43.4 µM; in the test with SN12C renal it was over 100 µM; in the test with NCI-H23 lung, over 100 µM. The TGI in the test on OVCAR-5 ovarian, in the test with MDA-MB-435, with SK-MEL-2 melanoma, in the test on HCT-15 colon, with CCRF-CEM leukemia and with SR leukemia was over 100 µM throughout. Besides, the TGI is over 100 µM in the test with MOLT-4 leukemia; 92.6 µM in the test on IGROV1 ovarian; over 100 µM in the test on HS 578T breast; over 100 µM in the test on HOP-92 NSCLC; over 100 µM in the test on MCF7 breast; over 100 µM in the test with SK-MEL-28 melanoma.

`Nc1ncnc2c1ncn2C1C=CC(COS(N)(=O)=O)C1` (configuration not stated): the TGI with RPMI-8226 leukemia was over 100 µM; with T-47D breast it was over 100 µM; in the test with MALME-3M melanoma, over 100 µM; with ACHN renal it was over 100 µM; with SN12C renal it was over 100 µM; with NCI-H23 lung it was 82.1 µM. The TGI in the test on OVCAR-5 ovarian, with MDA-MB-435, in the test on SK-MEL-2 melanoma, with HCT-15 colon, in the test on CCRF-CEM leukemia and with SR leukemia was over 100 µM each time. For the same molecule, the TGI with U251 CNS is over 100 µM; in the test with MOLT-4 leukemia, over 100 µM; in the test on IGROV1 ovarian, over 100 µM; in the test on HS 578T breast, over 100 µM; in the test on HOP-92 NSCLC, 87.3 µM; in the test with MCF7 breast, over 100 µM. Further, the TGI in the test with SK-MEL-28 melanoma was over 100 µM.

On to `CN(C)C1(N(C)C)Oc2c(c(=O)n(C)c(=O)n2C)C(c2ccccc2Br)C1(F)F` (configuration not stated), for which the TGI in the test with RPMI-8226 leukemia, in the test with T-47D breast, in the test on ACHN renal, with BT-549 breast, in the test with NCI-H23 lung and in the test with OVCAR-5 ovarian was over 100 µM in each case. The TGI in the test with MDA-MB-435, in the test with SK-MEL-2 melanoma, in the test with HCT-15 colon, with CCRF-CEM leukemia, with U251 CNS and in the test with MOLT-4 leukemia was over 100 µM throughout. The TGI in the test with HOP-92 NSCLC, with MCF7 breast and in the test on SK-MEL-28 melanoma was over 100 µM each time.

Regarding `Cc1cc(O)c(C=NC(=S)c2ccccc2)c(=O)o1`, the TGI in the test on T-47D breast, with ACHN renal, in the test on BT-549 breast, in the test with SN12C renal, in the test on NCI-H23 lung and in the test with OVCAR-5 ovarian was over 100 µM each time. Also, the TGI with MDA-MB-435, in the test with SK-MEL-2 melanoma, in the test with HCT-15 colon, in the test with U251 CNS, with MOLT-4 leukemia and in the test on IGROV1 ovarian was over 100 µM each time. Further, the TGI in the test on HOP-92 NSCLC, in the test with MCF7 breast and with SK-MEL-28 melanoma was over 100 µM each time.
